Experimental data reported in patent US11696913B2, “Prolonged ectoparasite-controlling agent for animal” (MITSUI CHEMICALS AGRO, INC., priority 2017, dated 2023).
Read-outs that look alike come from different tables or passages of the source.

Legend:
Amblyomma americanum = experiment: In vitro contact test with hard ticks (Amblyomma americanum nymphs); settings: read-out: acaricidal activity; for pest or weed control at 0.2 µg/cm2, 0.2 µg/cm2: dose 0.2 μg/cm^2, 48 h; for pest or weed control at 1 µg/cm2, 1 µg/cm2: dose 1 μg/cm^2, 48 h
How it was run: (§1)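 Acaricidal activity = % ticks dead or moribund after 48 h contact with acetone-deposited compound on vial walls (e.g., 900 ppm solution → 5 μg/cm^2). Ambient conditions for R. sanguineus, 21° C./85% rel. hum. for other species; heat challenge at 45-50° C. separated climbers from moribund ticks.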

Rhipicephalus sanguineus = experiment: In vitro contact test with adult hard ticks (Rhipicephalus sanguineus); settings: read-out: acaricidal activity; for pest or weed control at 0.2 µg/cm2, 0.2 µg/cm2: dose 0.2 μg/cm^2, 48 h; for pest or weed control at 1 µg/cm2, 1 µg/cm2: dose 1 μg/cm^2, 48 h; for pest or weed control at 0.04 µg/cm2, 0.04 µg/cm2: dose 0.04 μg/cm^2, 48 h
How it was run: as §1

Ixodes ricinus = experiment: In vitro contact test with adult hard ticks (Ixodes ricinus); settings: read-out: acaricidal activity; for pest or weed control at 1 µg/cm2, 1 µg/cm2: dose 1 μg/cm^2, 48 h; for pest or weed control at 5 µg/cm2, 5 µg/cm2: dose 5 μg/cm^2, 48 h; for pest or weed control at 0.2 µg/cm2, 0.2 µg/cm2: dose 0.2 μg/cm^2, 48 h
Protocol: In Vitro Contact Tests with Adult Hard Ticks
In vitro contact tests with ticks were conducted with adult males and females of Rhipicephalus sanguineus, Ixodes ricinus, or Dermacentor variabilis, or nymphs of Amblyomma americanum.
For the coating of the test vials, the test substance was dissolved and diluted in acetone p.a. to the desired concentration. The solution was then homogeneously applied to the inner wall and base of a glass vial by turning and rocking on an orbital shaker until complete evaporation of the solvent. For example, with a 900 ppm solution of test substance, an area-based dose of 5 μg/cm^2 was achieved.
After the solvent was completely evaporated, 5-10 adult ticks were put in each coated test vial, which was then sealed with a perforated plastic lid and incubated in a horizontal position in the dark at room temperature and ambient humidity (Rhipicephalus sanguineus) or in a climate-controlled cabinet (Ixodes ricinus, Dermacentor variabilis, Amblyomma americanum [21° C., 85% rel. hum.]). Acaricidal activity against the respective tick species was determined after 48 h. For this, ticks were collected to the base of the test vial by gentle knocking, and test vials were then incubated on a hotplate at 45-50° C. for no longer than 5 min. Ticks which remained motionless on the base of the test vial or moved uncoordinated without deliberately climbing up to avoid the heat were considered dead or moribund, respectively.
A substance was judged to have good acaricidal activity against the respective tick species when at least 80% of ticks were found dead or moribund at a dose of the substance of g/cm^2. An acaricidal activity of 100% means all ticks were dead or moribund. An acaricidal activity of 0% means none of the ticks was found dead or moribund.

Dermacentor variabilis = experiment: In vitro contact test with adult hard ticks (Dermacentor variabilis); settings: read-out: acaricidal activity; for pest or weed control at 0.2 µg/cm2, 0.2 µg/cm2: dose 0.2 μg/cm^2, 48 h; for pest or weed control at 1 µg/cm2, 1 µg/cm2: dose 1 μg/cm^2, 48 h
How it was run: as §1

Ctenocephalides felis [1] = experiment: In vitro contact test with fleas; settings: read-out: insecticidal activity; for pest or weed control at 0.2 µg/cm2, 0.2 µg/cm2: dose 0.2 μg/cm^2, dead or moribund fleas after 48 h; for pest or weed control at 1 µg/cm2, 1 µg/cm2: dose 1 μg/cm^2, dead or moribund fleas after 48 h
How it was run: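 Activity is the percentage of fleas dead or moribund at 48 h, judged by immobility or uncoordinated movement after tapping. Tubes were coated by evaporating acetone solutions (900 ppm gives 5 μg/cm^2), then held 5-10 adult fleas of both sexes at room temperature and ambient humidity.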

Ctenocephalides felis [2] = experiment: Ctenocephalides felis in-vitro feeding test with fleas (CTECFE oral); settings: 48 hours, read-out: insecticidal feeding activity; for pest or weed control at 0.0064 ppm: dose 0.0064 ppm in citrated cattle blood; for pest or weed control at 0.032 ppm: dose 0.032 ppm in citrated cattle blood; for pest or weed control at 0.16 ppm: dose 0.16 ppm in citrated cattle blood; for pest or weed control at 0.8 ppm: dose 0.8 ppm in citrated cattle blood; for pest or weed control at 4 ppm: dose 4 ppm in citrated cattle blood
How it was run: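 Scored as percent fleas killed (0–100%) 48 hours after feeding began. Compound, dissolved in DMSO and diluted into citrated cattle blood, was offered via a parafilm membrane to roughly 20 adult male and female C. felis at about 37° C.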

[3] = test system: Rhipicephalus (Boophilus) microplus; experiment: In vitro injection test with Rhipicephalus (Boophilus) microplus (BOOPMI Inj); settings: 168 h, laid fertile eggs after 7 days, read-out: acaricidal activity; for pest or weed control at 6.4 ng: dose 0.0064 μg/animal injected; for pest or weed control at 32 ng: dose 0.032 μg/animal injected; for pest or weed control at 0.00016 mg: dose 0.16 μg/animal injected; for pest or weed control at 0.0008 mg: dose 0.8 μg/animal injected
How it was run: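 Five engorged adult females each get a 1 μl abdominal injection of compound dissolved and diluted in DMSO. Kept 7 days at 28° C./85% rel. hum.; percent activity rates egg laying and egg fertility (0% all fertile, 100% none laid or infertile).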

Ctenocephalides felis [4] = experiment: Systemic treatment in-vivo test with cat flea on rats; settings: intraperitoneal injection, 5 mg/kg; for inhibition in vivo at 5 mg/kg: Ctenocephalides felis, ip
Protocol: Systemic Treatment In-Vivo Test with American Dog Tick Nymph and Cat Flea on Rats
Type of study and overall study design: The method is a randomized non-blinded efficacy study in accordance with European animal welfare requirements. Rats (Rattus norvegicus) were randomized based on pre-treatment flea counts. The efficacy of treatment was determined by comparison of the flea and tick counts of different treatment groups versus the placebo-treated control group. The experimental unit was the individual study animal. Method and route of administration: The compound was applied in a suitable solvent and carrier (more specifically, added to glycerol formal; in case of poorly soluble compounds, a solvent mixture with up to 25% by volume of N-methyl pyrrolidone may be used.) considering the individual body weight as an intraperitoneal injection.
Experimental infestation: On the day of treatment and weekly thereafter, 30 ticks (D. variabilis nymphs) were released onto the back of each rat, and 30 fleas (C. felis) were released onto the back of each rat 24 h later.
Tick and Flea counting: Rats were thoroughly examined and ticks and fleas were manually removed 48 h (±4 h) after tick infestation and 24 h after flea infestation. Live fleas and live attached engorged ticks were counted. In non-evident cases, engorgement status was evaluated by squeezing the tick on a filter paper to find traces of blood as sign for engorgement.

Spodoptera litura = experiment: Insecticidal testing against common cutworm; type: in vivo; settings: foliar, 144 h, concentration 100 ppm, cabbage leaf dip, second-stage larvae, after 6 days, read-out: pesticidal rate
From the text: Insecticidal Testing Against Common Cutworm (Spodoptera litura)

Plutella xylostella = experiment: Insecticidal testing against diamondback moth; type: in vivo; settings: foliar, 144 h, concentration 100 ppm, cabbage leaf dip, third-stage larvae, after 6 days, read-out: pesticidal rate
From the text: Insecticidal Testing Against Diamondback Moth (Plutella xylostella)

Compound | pest or weed control at 0.2 µg/cm2, 0.2 µg/cm2 (Amblyomma americanum) | pest or weed control at 1 µg/cm2, 1 µg/cm2 (Amblyomma americanum) | pest or weed control at 0.2 µg/cm2, 0.2 µg/cm2 (Rhipicephalus sanguineus) | pest or weed control at 1 µg/cm2, 1 µg/cm2 (Rhipicephalus sanguineus) | pest or weed control at 1 µg/cm2, 1 µg/cm2 (Ixodes ricinus) | pest or weed control at 5 µg/cm2, 5 µg/cm2 (Ixodes ricinus) | pest or weed control at 0.2 µg/cm2, 0.2 µg/cm2 (Dermacentor variabilis) | pest or weed control at 1 µg/cm2, 1 µg/cm2 (Dermacentor variabilis) | pest or weed control at 0.2 µg/cm2, 0.2 µg/cm2 (Ctenocephalides felis [1]) | pest or weed control at 1 µg/cm2, 1 µg/cm2 (Ctenocephalides felis [1]) | pest or weed control at 0.16 ppm (Ctenocephalides felis [2]) | pest or weed control at 0.8 ppm (Ctenocephalides felis [2]) | pest or weed control at 4 ppm (Ctenocephalides felis [2]) | pest or weed control at 32 ng [3] | pest or weed control at 0.00016 mg [3] | pest or weed control at 0.0008 mg [3] | also measured
N#Cc1ccc(C(=O)Nc2cccc(C(=O)Nc3c(I)cc(C(F)(C(F)(F)F)C(F)(F)C(F)(F)F)cc3C(F)(F)F)c2F)cc1 (centres unmarked) [Compound 34] | 90% | 90% | 90% | 90% | 90% | 90% | 90% | 90% | 95% | 95% | 95% | 95% | 95% | 100% | 100% | 100% | pest or weed control at 0.04 µg/cm2, 0.04 µg/cm2 (Dermacentor variabilis; dose 0.04 μg/cm^2, 48 h): 90%; pest or weed control at 0.0064 ppm (Ctenocephalides felis [2]): 95%; pest or weed control at 0.032 ppm (Ctenocephalides felis [2]): 95%; pest or weed control at 6.4 ng [3]: 100%
O=C(Nc1cccc(C(=O)Nc2c(I)cc(C(F)(C(F)(F)F)C(F)(F)C(F)(F)F)cc2C(F)(F)F)c1F)c1ccc(F)cc1 (centres unmarked) [Compound 35] | 90% | 90% | 90% | 90% | 90% | 90% | 90% | 90% | 95% | 95% | 95% | 95% | 95% | 100% | 100% | 100% | pest or weed control at 0.04 µg/cm2, 0.04 µg/cm2 (Amblyomma americanum; dose 0.04 μg/cm^2, 48 h): 90%; pest or weed control at 0.04 µg/cm2, 0.04 µg/cm2 (Rhipicephalus sanguineus): 90%; pest or weed control at 0.2 µg/cm2, 0.2 µg/cm2 (Ixodes ricinus): 90%; pest or weed control at 0.032 ppm (Ctenocephalides felis [2]): 95%; pest or weed control at 6.4 ng [3]: 100%
O=C(Nc1cccc(C(=O)Nc2c(Br)cc(C(F)(C(F)(F)F)C(F)(F)C(F)(F)F)cc2C(F)(F)F)c1F)c1ccc(F)cc1 (centres unmarked) [Compound 36] | 90% | 90% | 90% | 90% | 90% | 90% | 90% | 90% | 95% | 95% | 95% | 95% | 95% | 100% | 100% | 100% | pest or weed control at 0.04 µg/cm2, 0.04 µg/cm2 (Rhipicephalus sanguineus): 90%; pest or weed control at 0.2 µg/cm2, 0.2 µg/cm2 (Ixodes ricinus): 90%; pest or weed control at 0.04 µg/cm2, 0.04 µg/cm2 (Ctenocephalides felis [1]; dose 0.04 μg/cm^2, dead or moribund fleas after 48 h): 95%; pest or weed control at 0.0064 ppm (Ctenocephalides felis [2]): 95%
CCN(C(=O)c1ccc(F)cc1)c1cccc(C(=O)Nc2c(I)cc(C(F)(C(F)(F)F)C(F)(F)F)cc2C(F)(F)F)c1F [Compound 43] |  |  |  |  |  |  |  |  |  |  |  |  |  |  |  |  | inhibition in vivo at 5 mg/kg (Ctenocephalides felis [4]; SD 2, read-out: Geometric mean percent reduction in live flea (Ctenocephalides felis) counts compared to untreated control rats): 100%; inhibition in vivo at 5 mg/kg (Ctenocephalides felis [4]; SD 9, read-out: Geometric mean percent reduction in live flea (Ctenocephalides felis) counts compared to untreated control rats): 99%; inhibition in vivo at 5 mg/kg (Ctenocephalides felis [4]; SD 16, read-out: Geometric mean percent reduction in live flea (Ctenocephalides felis) counts compared to untreated control rats): 90%; inhibition in vivo at 5 mg/kg (Ctenocephalides felis [4]; SD 23, read-out: Geometric mean percent reduction in live flea (Ctenocephalides felis) counts compared to untreated control rats): 91%; inhibition in vivo at 5 mg/kg (Ctenocephalides felis [4]; SD 30, read-out: Geometric mean percent reduction in live flea (Ctenocephalides felis) counts compared to untreated control rats): 13%
CN(C(=O)c1ccc(S(N)(=O)=O)cc1)c1cccc(C(=O)Nc2c(I)cc(C(F)(C(F)(F)F)C(F)(F)F)cc2C(F)(F)F)c1F [Compound 45] |  |  |  |  |  |  |  |  |  |  | 95% | 95% | 95% |  | 100% | 100% | pest or weed control at 100 ppm (Spodoptera litura): ≥ 70%; pest or weed control at 100 ppm (Plutella xylostella): ≥ 70%
COc1ccc(C(=O)N(C)c2cccc(C(=O)Nc3c(I)cc(C(F)(C(F)(F)F)C(F)(F)F)cc3C(F)(F)F)c2F)cc1OC [Compound 50] |  |  |  |  |  |  |  |  |  |  |  |  | 95% |  |  |  | pest or weed control at 100 ppm (Spodoptera litura): ≥ 70%; pest or weed control at 100 ppm (Plutella xylostella): ≥ 70%
Cc1cc(C2=NOC(c3cc(Cl)cc(Cl)c3)(C(F)(F)F)C2)ccc1C(=O)NCC(=O)NCC(F)(F)F (centres unmarked) [Fluralaner, fluralaner, reference compound] |  |  |  |  |  |  |  |  |  |  |  |  |  |  |  |  | Geometric mean percent reduction in live flea (Ctenocephalides felis) counts compared to untreated control rats (Ctenocephalides felis [4]; SD 2): 100%; Geometric mean percent reduction in live flea (Ctenocephalides felis) counts compared to untreated control rats (Ctenocephalides felis [4]; SD 9): 100%; Geometric mean percent reduction in live flea (Ctenocephalides felis) counts compared to untreated control rats (Ctenocephalides felis [4]; SD 16): 51%; Geometric mean percent reduction in live flea (Ctenocephalides felis) counts compared to untreated control rats (Ctenocephalides felis [4]; SD 23): 7%
